Structures can show the parent of a compound that is named as a salt.
Target: T1, human ornithine aminotransferase (hOAT) (Homo sapiens, UniProt P04181)
T1 sequence (P04181 26-439): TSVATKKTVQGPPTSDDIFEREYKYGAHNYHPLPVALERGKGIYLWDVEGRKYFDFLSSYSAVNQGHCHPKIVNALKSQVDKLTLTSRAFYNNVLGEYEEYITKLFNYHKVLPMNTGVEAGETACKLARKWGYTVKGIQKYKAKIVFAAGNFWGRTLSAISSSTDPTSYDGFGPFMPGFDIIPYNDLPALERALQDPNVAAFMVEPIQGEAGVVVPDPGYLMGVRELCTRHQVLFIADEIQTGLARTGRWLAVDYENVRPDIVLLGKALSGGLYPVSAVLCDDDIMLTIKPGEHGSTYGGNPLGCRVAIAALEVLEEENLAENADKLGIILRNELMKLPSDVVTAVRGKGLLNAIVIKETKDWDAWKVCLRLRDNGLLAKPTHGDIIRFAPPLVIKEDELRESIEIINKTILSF
Experiment: […] Å crystal structure of the inactivated enzyme
Format: biochemical
Conditions: read-out: Ki

KI (inactivation): 54 µM
Compound: N[C@H]1C[C@@H](C(=O)O)CC1=C(C(F)(F)F)C(F)(F)F [compound 1, (1S,3S)-3-amino-4-(perfluoropropan-2-ylidene)cyclopentane-1-carboxylic acid hydrochloride]
